Assay: Solubility of redox-active electrolyte species in aqueous electrolyte

CCCCCCC[n+]1ccc(-c2cc[n+](CCCCCCC)cc2)cc1.[Br-].[Br-] [HV]
solubility (aqueous electrolyte): < 0.2 M

CCCCCC[n+]1ccc(-c2cc[n+](CCCCCC)cc2)cc1 [Hexyl viologen]
solubility in the presence of NaBr (aqueous, in the presence of NaBr): < 0.5 M
